Source: ChEMBL document CHEMBL1909046, “DrugMatrix in vitro pharmacology data”

Tests used:
[1] = DRUGMATRIX: Calcium Channel Type L, Benzothiazepine radioligand binding (ligand: [3H] Diltiazem); format: cell membranes, Rattus norvegicus, Wistar, Brain, Membrane; settings: Not Active = under 50% inhibition at 10 µM
[2] = target: T1, Alpha-1D adrenergic receptor (Homo sapiens, UniProt P25100); format: cell membranes, HEK293, Membrane; also: in other assays of this panel Not Active means under 50% inhibition at 10 µM
T1 sequence (P25100 whole entry): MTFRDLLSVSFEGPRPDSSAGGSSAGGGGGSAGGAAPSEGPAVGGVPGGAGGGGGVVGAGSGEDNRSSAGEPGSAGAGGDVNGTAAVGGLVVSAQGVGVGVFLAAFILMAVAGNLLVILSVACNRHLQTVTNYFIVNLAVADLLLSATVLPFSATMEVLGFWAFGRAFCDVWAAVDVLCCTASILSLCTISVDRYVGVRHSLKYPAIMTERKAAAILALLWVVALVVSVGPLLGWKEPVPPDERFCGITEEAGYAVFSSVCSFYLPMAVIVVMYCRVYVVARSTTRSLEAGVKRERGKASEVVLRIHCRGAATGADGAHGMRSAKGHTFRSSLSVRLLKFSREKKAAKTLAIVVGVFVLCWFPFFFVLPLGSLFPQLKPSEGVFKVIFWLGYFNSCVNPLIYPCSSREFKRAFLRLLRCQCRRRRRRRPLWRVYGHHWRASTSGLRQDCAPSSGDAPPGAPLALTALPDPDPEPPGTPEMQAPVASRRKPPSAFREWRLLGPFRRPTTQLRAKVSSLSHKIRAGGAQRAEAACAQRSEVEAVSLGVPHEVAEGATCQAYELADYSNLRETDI

[3] = DRUGMATRIX: Serotonin (5-Hydroxytryptamine) 5-HT3 radioligand binding (ligand: [3H] GR-65630); format: cell membranes, Membrane; settings: hek293; Not Active = under 50% inhibition at 10 µM
[4] = target: Melanocortin receptor 4 (Homo sapiens, UniProt P32245); format: cell membranes, Membrane; settings: hek293; also: in other assays of this panel Not Active means under 50% inhibition at 10 µM
[5] = target: Carbonic anhydrase 2 (Homo sapiens, UniProt P00918); test: DRUGMATRIX: Carbonic Anhydrase II enzyme inhibition (substrate: 4-Nitrophenyl acetate (4-NPA)); format: tissue-based, Erythrocyte; settings: erythrocyte; Not Active = under 50% inhibition at 10 µM
[6] = target: Beta-1 adrenergic receptor (Homo sapiens, UniProt P08588); test: DRUGMATRIX: Adrenergic beta1 radioligand binding (ligand: [125I] Cyanopindolol); format: cell membranes, CHO-K1, Membrane; settings: Not Active = under 50% inhibition at 10 µM
[7] = target: T2, Cholecystokinin receptor type A (Homo sapiens, UniProt P32238); format: cell membranes, Membrane; settings: 1321-n1; also: in other assays of this panel Not Active means under 50% inhibition at 10 µM
T2 sequence (P32238 whole entry): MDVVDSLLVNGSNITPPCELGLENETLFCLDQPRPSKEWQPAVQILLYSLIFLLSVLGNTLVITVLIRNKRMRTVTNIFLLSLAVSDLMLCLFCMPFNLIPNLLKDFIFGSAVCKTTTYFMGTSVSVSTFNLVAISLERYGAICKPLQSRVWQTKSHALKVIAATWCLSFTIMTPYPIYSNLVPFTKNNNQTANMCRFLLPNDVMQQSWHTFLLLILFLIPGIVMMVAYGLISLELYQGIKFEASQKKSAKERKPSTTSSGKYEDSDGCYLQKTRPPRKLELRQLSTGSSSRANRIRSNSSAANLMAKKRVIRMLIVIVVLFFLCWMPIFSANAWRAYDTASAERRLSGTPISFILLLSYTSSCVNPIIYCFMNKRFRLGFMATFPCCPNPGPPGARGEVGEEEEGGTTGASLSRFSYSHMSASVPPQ

Chain of Melanocortin receptor 4 (P32245 whole entry): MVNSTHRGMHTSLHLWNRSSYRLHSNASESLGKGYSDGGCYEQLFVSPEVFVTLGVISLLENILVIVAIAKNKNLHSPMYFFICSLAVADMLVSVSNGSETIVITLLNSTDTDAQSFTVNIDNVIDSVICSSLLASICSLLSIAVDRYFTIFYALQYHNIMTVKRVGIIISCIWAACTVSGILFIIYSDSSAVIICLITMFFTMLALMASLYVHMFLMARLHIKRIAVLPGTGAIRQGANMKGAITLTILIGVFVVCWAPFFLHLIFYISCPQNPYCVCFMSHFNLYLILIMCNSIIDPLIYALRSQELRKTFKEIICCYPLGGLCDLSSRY
Chain of Beta-1 adrenergic receptor (P08588 whole entry): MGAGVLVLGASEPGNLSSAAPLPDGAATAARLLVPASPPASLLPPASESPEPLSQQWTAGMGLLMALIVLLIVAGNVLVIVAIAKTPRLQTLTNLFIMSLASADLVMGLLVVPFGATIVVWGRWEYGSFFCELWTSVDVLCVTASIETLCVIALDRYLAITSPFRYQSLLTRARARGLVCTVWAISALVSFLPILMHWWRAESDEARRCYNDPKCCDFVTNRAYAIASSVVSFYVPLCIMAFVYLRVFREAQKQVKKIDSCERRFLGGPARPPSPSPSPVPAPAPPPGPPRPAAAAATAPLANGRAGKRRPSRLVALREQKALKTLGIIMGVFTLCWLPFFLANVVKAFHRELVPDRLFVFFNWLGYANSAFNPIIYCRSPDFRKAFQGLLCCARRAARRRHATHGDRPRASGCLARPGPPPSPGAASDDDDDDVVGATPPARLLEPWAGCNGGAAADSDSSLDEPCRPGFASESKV

Row | Compound | IC50 [1] | Ki [1] | IC50 ([2]; read-out: IC50) | Ki ([2]; read-out: Ki) | IC50 [3] | Ki [3] | IC50 [4] | IC50 [5] | IC50 ([6]; read-out: IC50) | Ki ([6]; read-out: Ki) | IC50 [7] | IC50 ([2]; hek293) | IC50 ([6]; cho-k1)
1 | CC(C)C[C@H]1C(=O)N2CCC[C@H]2[C@]2(O)O[C@](NC(=O)[C@@H]3C=C4c5cccc6[nH]c(Br)c(c56)C[C@H]4N(C)C3)(C(C)C)C(=O)N12 [BROMOCRIPTINE] | Not Active | Not Active | 30 nM | 15 nM | Not Active | Not Active | Not Active | Not Active | 2400 nM | 1390 nM | Not Active | – | –
2 | CCOC(=O)[C@H](CCc1ccccc1)N[C@@H](C)C(=O)N1CCC[C@H]1C(=O)O | Not Active | Not Active | – | – | Not Active | Not Active | Not Active | Not Active | – | – | Not Active | Not Active | Not Active
3 | C[C@@H]1CC[C@H]2[C@@H](C)C(=O)O[C@@H]3O[C@@]4(C)CC[C@@H]1[C@]32OO4 [ARTEMISININ] | Not Active | Not Active | – | – | Not Active | Not Active | Not Active | Not Active | – | – | Not Active | Not Active | Not Active
4 | CN1C(=O)CN=C(c2ccccc2)c2cc(Cl)ccc21 [DIAZEPAM] | Not Active | Not Active | – | – | Not Active | Not Active | Not Active | Not Active | – | – | Not Active | Not Active | Not Active
5 | Nn1nnc2ccccc21 | Not Active | Not Active | – | – | Not Active | Not Active | Not Active | Not Active | – | – | Not Active | Not Active | Not Active
6 | CC(C)(CO)C(O)C(=O)NCCCO (configuration not stated) [PANTHENOL] | Not Active | Not Active | – | – | Not Active | Not Active | Not Active | Not Active | – | – | Not Active | Not Active | Not Active
7 | O=C(O)Cc1ccc(-c2ccccc2)cc1 [FELBINAC] | Not Active | Not Active | – | – | Not Active | Not Active | Not Active | Not Active | – | – | Not Active | Not Active | Not Active
8 | O=C(O)c1cccnc1 [NIACIN] | Not Active | Not Active | – | – | Not Active | Not Active | Not Active | Not Active | – | – | Not Active | Not Active | Not Active
9 | C[C@H](C(=O)O)c1cccc(C(=O)c2ccccc2)c1 [DEXKETOPROFEN] | Not Active | Not Active | – | – | Not Active | Not Active | Not Active | Not Active | – | – | Not Active | Not Active | Not Active
10 | CC[C@H]1OC(=O)[C@H](C)[C@@H](O[C@H]2C[C@@](C)(OC)[C@@H](O)[C@H](C)O2)[C@H](C)[C@@H](O[C@@H]2O[C@H](C)C[C@H](N(C)C)[C@H]2O)[C@](C)(OC)C[C@@H](C)C(=O)[C@H](C)[C@@H](O)[C@]1(C)O [CLARITHROMYCIN] | Not Active | Not Active | – | – | Not Active | Not Active | Not Active | Not Active | – | – | Not Active | Not Active | Not Active
